Legend:
[1] = biological target: T1, PKC-ε (Mus musculus, UniProt P16054); assay: PKC-ε activation and translocation by bryostatin in mouse brain (Western blot); format: in vivo
T1 construct: from tissue; host or cells: brain of C57BL/6 mice
T1 sequence (P16054 1-737): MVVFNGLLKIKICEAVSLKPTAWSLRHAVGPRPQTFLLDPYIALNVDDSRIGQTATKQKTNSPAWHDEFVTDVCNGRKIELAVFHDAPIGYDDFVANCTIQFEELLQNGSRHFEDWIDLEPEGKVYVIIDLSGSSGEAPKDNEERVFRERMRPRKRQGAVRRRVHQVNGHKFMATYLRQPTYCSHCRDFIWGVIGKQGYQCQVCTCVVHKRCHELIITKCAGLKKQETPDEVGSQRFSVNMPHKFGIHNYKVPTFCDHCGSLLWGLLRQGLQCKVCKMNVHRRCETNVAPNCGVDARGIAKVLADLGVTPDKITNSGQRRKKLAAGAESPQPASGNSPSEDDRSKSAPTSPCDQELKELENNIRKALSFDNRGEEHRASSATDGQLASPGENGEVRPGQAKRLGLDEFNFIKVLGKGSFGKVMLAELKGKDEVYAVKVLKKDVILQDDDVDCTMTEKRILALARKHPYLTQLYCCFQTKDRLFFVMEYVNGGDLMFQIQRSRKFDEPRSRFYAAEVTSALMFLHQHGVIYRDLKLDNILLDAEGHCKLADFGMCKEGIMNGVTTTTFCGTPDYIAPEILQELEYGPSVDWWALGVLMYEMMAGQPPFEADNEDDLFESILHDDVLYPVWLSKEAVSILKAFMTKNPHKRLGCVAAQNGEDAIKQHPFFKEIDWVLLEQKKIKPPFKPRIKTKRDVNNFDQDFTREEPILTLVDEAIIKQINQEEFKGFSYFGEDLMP
Method: Protocol: Male C57BL/6M mice (15-20 g, Charles River) were acclimatized for 7-8 days in a non-enriched environment, three mice per cage. Bryostatin (Tocris) was dissolved in DMSO, diluted into 0.9% saline, and injected into the tail vein at doses of 10 and 15 μg/m2. After a fixed period, the mice were anesthetized with CO2 and the brain was frozen on dry ice. Blood was mixed with 0.2 ml 1 mM EDTA in PBS, centrifuged at 100 g for 30 min, and plasma was frozen on dry ice. In some experiments, blood lymphocyte fractions were collected using Ficoll-Paque Plus reagent using the procedure recommended by the manufacturer. All animal procedures were approved by the institutional IACUC.
Activation and translocation of PKC-ε were measured by Western blotting after subcellular fractionation into cytosol and particulate fractions. Homogenates were centrifuged at 100,000×g for 20 min and cytosolic and particulate fractions were separated on 4-20% Tris-glycine SDS polyacrylamide gels, blotted onto nitrocellulose, and probed with isozyme specific antibodies. The blots were photographed in a GE ImageQuant at 16 bits/pixel and analyzed by vertical strip densitometry using Imal Unix software.
Bryostatin was injected into the tail vein of C57BL/6N mice at 10 and 15 μg/m2 (equivalent to 3.50 and 5.25 μg/kg), and brain PKC-ε concentration was measured using Western blots. Brain PKC-ε activation was biphasic, peaking at 0.5 h and slowly declined toward resting levels, even though bryostatin levels continued to increase. This is consistent with the short-lived activation of PKC established previously. […] The bryostatin concentration at 0.5 h was 0.029 nM.
The results of a dose dependence study of activation of PKCα and PKCε translocation by bryostatin, are shown below in FIG. 4 (measured 30 minutes after administration), and FIG. 5 (measured 120 minutes after administration). The effect of bryostatin on brain PKC translocation (an indicator of enzymatic activation) was also biphasic, with maximal effects observed at doses between 5 and 10 μg/m2.

[2] = test system: HCN-2 cells; assay: Synaptogenesis in HCN-2 cells; format: cell-based, human; details: 10 days
Method: FIG. 9 illustrates that activation of PKC-ε induces synaptogenesis in HCN-2 cells. The HCN-2 cell line was derived from cortical tissue removed from a patient undergoing hemispherectomy for intractable seizures associated with Rasmussen's encephalitis. The cells were treated with either DCPLA-methyl ester or bryostatin-1 for 10 days. […] Thus, PKC-ε activation can induce synaptogenesis in both embryonic and adult neuronal cells.

[3] = test system: Human primary neurons; assay: ASPD-induced apoptosis in human primary neurons (Annexin-V Fluorescein); format: cell-based; details: 0.27 nM with 100 nM ASPD, 24 hours
Method: Protocol: Human primary neurons were grown on chambered slides and treated with vehicle (Control), 100 nM ASPD, ASPD+DCPLA-ME (100 nM), ASPD+bryostatin 1 (0.27 nM) and ASPD+DCPLA-ME (100 nM) or ASPD+bryostatin 1 (0.27 nM) in presence of PKC-ε inhibitor. Following 24 hours of incubation, cells were stained using Annexin-V Fluorescein to detect apoptotic cells and results are shown in FIG. 10 below. […] Data are mean±SEM of three independent experiments. (*p<0.05;** p<0.005 and *** p<0.0005).

[4] = test system: healthy brown Norway rats; assay: Learning, memory and mushroom spine synapses in healthy rats, water maze training; format: in vivo; parameters: learning acquisition: dose or concentration left out as unconfirmed
Description: Protocol: Non-disease, healthy brown Norway rats (at 4-5 months old) were used in this study. […] (Nv=naîve controls; Sw=swim controls; Mz=water maze treatment; and Mz/Br=water maze treatment plus bryostatin treatment).

[5] = clinical trials, Varterasian et al. 2000; cited from earlier work
[6] = test system: alpha-secretase; details: human fibroblasts; Etcheberrigaray et al. 2004; cited from earlier work
[7] = test system: 5XFAD mice; assay: Synaptic loss in hippocampal CA1 area of 5XFAD mice; format: in vivo
Method: Protocol: DCPLA (20 mg/m^2, tail vein injection) was administered to 2-month old 5XFAD mice twice a week. At five months old, hippocampal slices from the brains of the mice were processed for immunohistochemistry and confocal microscopy analysis. Results are shown for analysis of spinophilin density (A, B), synaptophysin density (A, D) not caused by axonal bouton (synaptophysin granules) (C) and neuronal loss (E, F). […] Non-treated groups (wild-type and transgenic (Tg) mice) received the same vehicle volumes, mechanism of delivery, and frequency of administration as the treated groups.

[8] = 10 mg/kg body weight intraperitoneal, 3 doses every other days, during water maze training

Row | SMILES | PKC-ε translocation in mouse brain ([1]; 30 and 120 minutes after administration) | downregulation of brain PKC-ε ([1]; tail vein 10 and 15 μg/m2, C57BL/6N mice) | time of peak brain PKC-ε activation ([1]; tail vein 10 and 15 μg/m2, C57BL/6N mice, biphasic) [h] | differentiation, neuronal branching and punctate colocalization of PSD-95 and synaptophysin [2] | protection against ASPD-induced apoptosis [3] | memory retention [4, 8] | memory-specific induction of mushroom spine synapses [4, 8] | non-mushroom spine density in naïve rats ([4]; Bryostatin alone, no water maze) | learning acquisition ([4]; intraperitoneal, 3 doses every other days, during water maze training) | tumor growth promotion [5] | activation of alpha-secretase (sAPP generation) [6] | mushroom spine shape dendritic spines and synapses ([7]; 20 mg/m^2 tail vein twice a week from 2 months old, analysis at five months) | synaptic loss in hippocampal CA1 area ([7]; 5XFAD mice at 5 months old (FIG. 20))
1 | CCC/C=C/C=C/C(=O)O[C@H]1/C(=C/C(=O)OC)C[C@H]2C[C@H]([C@@H](C)O)OC(=O)C[C@H](O)C[C@@H]3C[C@H](OC(C)=O)C(C)(C)[C@](O)(C[C@@H]4C/C(=C/C(=O)OC)C[C@H](/C=C/C(C)(C)[C@]1(O)O2)O4)O3 [Bryostatin, bryostatin-1] | translocation was only observed by PKC-ε | No downregulation below starting values was observed | 0.5 | significant differentiation with neuronal branching and increased punctate colocalization of PSD-95 and synaptophysin | protected against ASPD-induced apoptosis | promoted | promotes memory-specific induction of mushroom spine synapses | increased non-mushroom spine density | promoted learning acquisition | does not promote tumor growth | activate the alpha-secretase | – | –
2 | CCCCCC1CC1CC1CC1CCCCCCCC(=O)O (stereo not shown) [DCPLA, 8-[2-(2-pentylcyclopropyl)methyl]-cyclopropaneoctanoic acid] | – | – | – | – | – | – | – | – | – | – | – | protected the decrease in mushroom spine shape dendritic spines and synapses | prevents synaptic loss

— US20160025704A1, “METHODS FOR IDENTIFYING NEUROPROTECTIVE PKC ACTIVATORS” (priority 2013, published 2016)
